Results from patent US10336739B2, “4-hydroxy-3-(heteroaryl)pyridine-2-one APJ agonists” (BRISTOL-MYERS SQUIBB COMPANY, priority 2015, dated 2019).
Like-named read-outs stand apart in the source and are kept apart here.

Biological target: human APJ receptor (Homo sapiens (Human), UniProt P35414)
Assay: Intracellular cAMP accumulation assay (APJ hcAMP, HTRF)
Format: cell-based
Conditions: HEK293 cells stably expressing human APJ receptor, inhibition of forskolin-mediated cAMP production
Protocol: Intracellular cAMP Accumulation Assay
HEK293 cells stably expressing human APJ receptor were used to assess the activity of compounds. Cultured cells were detached and resuspended in the cAMP Homogeneous Time-Resolved Fluorescence (HTRF) assay buffer (Cisbio cat; #62AM4PEJ). The assay was performed in 384-well assay plates (Perkin-Elmer; cat #6008289) according to assay protocol provided by the manufacturer. Serial dilutions of a compound together with assay buffer containing […] and 2 μM forskolin were added to each well containing 5,000 cells and incubated for 30 minutes at room temperature. Subsequently, cAMP D2 reagent was added in the lysis buffer followed by the EuK antibody (Cisbio; cat #62AM4PEJ) and incubated for 60 min. The fluorescence emission ratio was measured using fluorometer. The intracellular cAMP concentrations (compound-stimulated inhibition of forskolin-mediated cAMP production) were calculated by extrapolation from a standard curve using known cAMP concentrations. The EC50 values were obtained by fitting the data to a sigmoidal concentration-response curve with variable slope.

[1] = read-out: hAPJ cAMP EC50 (nM) Potency range
[2] = read-out: hAPJ cAMP EC50 Potency range

human APJ receptor, sequence (P35414 whole entry): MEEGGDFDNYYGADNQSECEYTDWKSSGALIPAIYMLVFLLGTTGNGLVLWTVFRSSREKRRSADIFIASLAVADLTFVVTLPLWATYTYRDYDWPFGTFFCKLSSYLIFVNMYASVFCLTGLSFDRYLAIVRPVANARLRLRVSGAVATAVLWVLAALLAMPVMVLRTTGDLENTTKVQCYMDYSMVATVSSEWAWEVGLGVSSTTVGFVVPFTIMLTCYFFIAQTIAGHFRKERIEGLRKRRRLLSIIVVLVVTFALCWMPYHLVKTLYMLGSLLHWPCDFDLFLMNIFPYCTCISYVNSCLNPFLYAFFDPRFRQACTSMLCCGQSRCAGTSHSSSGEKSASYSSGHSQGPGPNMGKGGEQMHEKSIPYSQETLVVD

| EC50 [2] [nM] | Structure (SMILES) | other results |
| --- | --- | --- |
| – | CCCCc1nc(O)c(-c2nnc(CC(=O)Nc3cc(C)n[nH]3)o2)c(O)c1-c1c(OC)cccc1OC [Example 263, 2-{5-[6-butyl-5-(2,6-dimethoxyphenyl)-2,4-dihydroxy-pyridin-3-yl]-1,3,4-oxadiazol-2-yl}-N-(3-methyl-1H-pyrazol-5-yl)acetamide] | EC50 [1]: 0.01 to 10 nM |
| 10 to 100 | CCCCc1[nH]c(=O)c(-c2nnc(Cc3csc(C)n3)o2)c(O)c1-c1cccc(CO)c1 [Example 152, 6-butyl-4-hydroxy-5-[3-(hydroxymethyl)phenyl]-3-{5-[(2-methyl-1,3-thiazol-4-yl)methyl]-1,3,4-oxadiazol-2-yl}-1,2-dihydropyridin-2-one] | – |
| 10 to 100 | CCCCc1nc(O)c(-c2nnc(COc3ccc(Cl)c(Cl)c3)o2)c(O)c1-c1c(OC)cccc1OC [Example 50, 6-butyl-3-[5-(3,4-dichlorophenoxy-methyl)-1,3,4-oxadiazol-2-yl]-5-(2,6-dimethoxyphenyl) pyridine-2,4-diol] | – |
| 0.01 to 10 | CCCCc1nc(O)c(-c2nnc(CC(=O)N3CC(F)C3)o2)c(O)c1-c1c(OC)cccc1OC [Example 199, 2-{5-[6-butyl-5-(2,6-dimethoxyphenyl)-2,4-dihydroxypyridin-3-yl]-1,3,4-oxadiazol-2-yl}-1-(3-fluoroazetidin-1-yl)ethan-1-one] | – |
| 0.01 to 10 | CCCCc1nc(O)c(-c2nnc(Cc3nnc(-c4ccncc4)o3)o2)c(O)c1-c1c(OC)cccc1OC [Example 206, 6-butyl-5-(2,6-dimethoxyphenyl)-3-(5-{[5-(pyridin-4-yl)-1,3,4-oxadiazol-2-yl]methyl}-1,3,4-oxadiazol-2-yl)pyridine-2,4-diol] | – |
| 0.01 to 10 | CCCCc1nc(O)c(-c2nnc(CC(=O)OC(C)(C)C)o2)c(O)c1-c1c(OC)cccc1OC [Example 118, tert-butyl 2-{5-[6-butyl-5-(2,6-dimethoxyphenyl)-2,4-dihydroxypyridin-3-yl]-1,3,4-oxadiazol-2-yl}acetate] | – |
| – | COc1cccc(OC)c1-c1c(C2CCCC2)nc(O)c(-c2nnc(Cc3ccc(Cl)cn3)o2)c1O [Example 238, 3-{5-[(5-chloropyridin-2-yl)methyl]-1,3,4-oxadiazol-2-yl}-6-cyclopentyl-5-(2,6-dimethoxyphenyl) pyridine-2,4-diol] | EC50 [1]: 0.01 to 10 nM |
| 0.01 to 10 | CCCCc1nc(O)c(-c2nnc(CC(=O)NC3CC3)o2)c(O)c1-c1c(OC)cccc1OC [Example 188, 2-{5-[6-butyl-5-(2,6-dimethoxyphenyl)-2,4-dihydroxypyridin-3-yl]-1,3,4-oxadiazol-2-yl}-N-cyclo-propylacetamide] | – |
| – | CCCCc1nc(O)c(-c2nnc(Cc3ccc(Cl)cc3)o2)c(O)c1-c1c(OC)ccc(F)c1OC (single isomer, unassigned) [Example 219, 6-butyl-3-{5-[(4-chlorophenyl)methyl]-1,3,4-oxadiazol-2-yl}-5-(3-fluoro-2,6-dimethoxyphenyl)pyridine-2,4-diol] | EC50 (read-out: Human APJ cAMP EC50 Potency range): 0.01 to 10 nM |
| 0.01 to 10 | CCCCc1nc(O)c(-c2nnc(Cc3cccc(OC)c3)o2)c(O)c1-c1c(OC)cccc1OC [Example 7, 6-butyl-5-(2,6-dimethoxyphenyl)-3-{5-[(3-methoxyphenyl)methyl]-1,3,4-oxadiazol-2-yl}pyridine-2,4-diol] | – |
| – | COc1cccc(OC)c1-c1c(C2CCCC2)nc(O)c(-c2nnc(Cc3ccc(Cl)cn3)s2)c1O [Example 233, 3-{5-[(5-chloropyridin-2-yl)methyl]-1,3,4-thiadiazol-2-yl}-6-cyclopentyl-5-(2,6-dimethoxyphenyl) pyridine-2,4-diol] | EC50 [1]: 10 to 100 nM |
| 0.01 to 10 | CCOCc1nc(O)c(-c2nnc(Cc3ccc(F)cn3)o2)c(O)c1-c1c(OC)cccc1OC [Example 124, 5-(2,6-dimethoxyphenyl)-6-(ethoxymethyl)-3-{5-[(5-fluoropyridin-2-yl)methyl]-1,3,4-oxadiazol-2-yl}pyridine-2,4-diol] | – |
| 0.01 to 10 | CCCCc1nc(O)c(-c2nnc(CNC(=O)Cc3ccccc3)o2)c(O)c1-c1c(OC)cccc1OC [Example 166, N-({5-[6-butyl-5-(2,6-dimethoxyphenyl)-2,4-dihydroxypyridin-3-yl]-1,3,4-oxadiazol-2-yl}methyl)-2-phenylacetamide] | – |
| 0.01 to 10 | CCOCc1nc(O)c(-c2nnc(Cc3noc4ccccc34)o2)c(O)c1-c1c(OC)cccc1OC [Example 89, 3-[5-(1,2-benzoxazol-3-ylmethyl)-1,3,4-oxadiazol-2-yl]-5-(2,6-dimethoxyphenyl)-6-(ethoxymethyl) pyridine-2,4-diol] | – |
| – | CCOCc1nc(O)c(-c2nnc(CNC(=O)c3ccccc3)o2)c(O)c1-c1ccccc1OC [Example 251, N-({5-[6-(ethoxymethyl)-2,4-dihydroxy-5-(2-methoxyphenyl)-pyridin-3-yl]-1,3,4-oxadiazol-2-yl}methyl) benzamide] | EC50 [1]: 0.01 to 10 nM |
| 0.01 to 10 | CCCCc1nc(O)c(-c2nnc(CNC(=O)c3ccc(Cl)cc3)o2)c(O)c1-c1c(OC)cccc1OC [Example 163, N-({5-[6-butyl-5-(2,6-dimethoxyphenyl)-2,4-dihydroxypyridin-3-yl]-1,3,4-oxadiazol-2-yl}methyl)-4-chlorobenzamide] | – |
| 0.01 to 10 | CCOCc1nc(O)c(-c2nnc(Cc3ccc(F)cc3)o2)c(O)c1-c1c(OC)cccc1OC [Example 135, 5-(2,6-dimethoxyphenyl)-6-(ethoxymethyl)-3-{5-[(4-fluorophenyl)methyl]-1,3,4-oxadiazol-2-yl}pyridine-2,4-diol] | – |
| 0.01 to 10 | CCCCc1nc(O)c(-c2nnc(CCc3nc4ccccc4o3)o2)c(O)c1-c1c(OC)cccc1OC [Example 47, 3-{5-[2-(1,3-benzoxazol-2-yl)ethyl]-1,3,4-oxadiazol-2-yl}-6-butyl-5-(2,6-dimethoxyphenyl) pyridine-2,4-diol] | – |
| 0.01 to 10 | CCCCc1nc(O)c(-c2nnc(CN3CCCC3=O)o2)c(O)c1-c1c(OC)cccc1OC [Example 105, 1-({5-[6-butyl-5-(2,6-dimethoxyphenyl)-2,4-dihydroxypyridin-3-yl]-1,3,4-oxadiazol-2-yl}methyl) pyrrolidin-2-one] | – |
| 0.01 to 10 | CCCCc1nc(O)c(-c2nnc(CCc3nc(-c4cnccn4)no3)o2)c(O)c1-c1c(OC)cccc1OC [Example 52, 6-butyl-5-(2,6-dimethoxyphenyl)-3-(5-{2-[3-(pyrazin-2-yl)-1,2,4-oxadiazol-5-yl]ethyl}-1,3,4-oxadiazol-2-yl)pyridine-2,4-diol] | – |
| 10 to 100 | CCCCCNC(=O)Cc1nnc(-c2c(O)nc(CCCC)c(-c3c(OC)cccc3OC)c2O)o1 [Example 198, 2-{5-[6-butyl-5-(2,6-dimethoxyphenyl)-2,4-dihydroxypyridin-3-yl]-1,3,4-oxadiazol-2-yl}-N-pentylacetamide] | – |
| 10 to 100 | CCCCc1nc(O)c(-c2nnc(Cc3ccc(F)c(F)c3)o2)c(O)c1C1=CCCCC1 [Example 144, 6-butyl-5-(cyclohex-1-en-1-yl)-3-{5-[(3,4-difluorophenyl)methyl]-1,3,4-oxadiazol-2-yl}pyridine-2,4-diol] | – |
| 0.01 to 10 | CCCCc1nc(O)c(-c2nnc(CCc3nccs3)o2)c(O)c1-c1c(OC)cccc1OC [Example 72, 6-butyl-5-(2,6-dimethoxyphenyl)-3-{5-[2-(1,3-thiazol-2-yl)ethyl]-1,3,4-oxadiazol-2-yl}pyridine-2,4-diol] | – |
| 10 to 100 | CCCCc1nc(O)c(-c2nnc(CC(=O)NCCOC)o2)c(O)c1-c1c(OC)cccc1OC [Example 193, 2-{5-[6-butyl-5-(2,6-dimethoxyphenyl)-2,4-dihydroxypyridin-3-yl]-1,3,4-oxadiazol-2-yl}-N-(2-methoxyethyl) acetamide] | – |
| 10 to 100 | CCCCc1[nH]c(=O)c(-c2nnc(Cc3csc(C)n3)o2)c(O)c1-c1cccc(N2CCCC2)c1 [Example 153, 6-butyl-4-hydroxy-3-{5-[(2-methyl-1,3-thiazol-4-yl)methyl]-1,3,4-oxadiazol-2-yl}-5-[3-(pyrrolidin-1-yl)phenyl]-1,2-dihydropyridin-2-one] | – |
| 0.01 to 10 | CCCCc1nc(O)c(-c2nnc(CNC(=O)COC)o2)c(O)c1-c1c(OC)cccc1OC [Example 158, N-({5-[6-butyl-5-(2,6-dimethoxyphenyl)-2,4-dihydroxypyridin-3-yl]-1,3,4-oxadiazol-2-yl}methyl)-2-methoxyacetamide] | – |
| 0.01 to 10 | CCOCc1nc(O)c(-c2nnc(Cn3ccccc3=O)o2)c(O)c1-c1c(OC)cccc1OC [Example 119, 1-({5-[5-(2,6-dimethoxyphenyl)-6-(ethoxymethyl)-2,4-dihydroxypyridin-3-yl]-1,3,4-oxadiazol-2-yl}methyl)-1,2-dihydropyridin-2-one] | – |
| 0.01 to 10 | CCCCc1nc(O)c(-c2nnc(Cc3ccc(Cl)c(F)c3)o2)c(O)c1-c1c(OC)cccc1OC [Example 71, 6-butyl-3-{5-[(4-chloro-3-fluorophenyl)methyl]-1,3,4-oxadiazol-2-yl}-5-(2,6-dimethoxyphenyl) pyridine-2,4-diol] | – |
| 10 to 100 | CCCCc1nc(O)c(-c2nnc(CCc3ncc(-c4ccccc4)o3)o2)c(O)c1-c1c(OC)cccc1OC [Example 28, 6-butyl-5-(2,6-dimethoxyphenyl)-3-{5-[2-(5-phenyl-1,3-oxazol-2-yl)ethyl]-1,3,4-oxadiazol-2-yl}pyridine-2,4-diol] | – |
| 10 to 100 | CCCCc1nc(O)c(-c2nnc(Cc3n[nH]c(=O)c4ccccc34)o2)c(O)c1-c1c(OC)cccc1OC [Example 44, 4-({5-[6-butyl-5-(2,6-dimethoxyphenyl)-2,4-dihydroxypyridin-3-yl]-1,3,4-oxadiazol-2-yl}methyl)-1,2-dihydrophthalazin-1-one] | – |
